# Laboratory results as given in patent US7074743B1, “Herbicidal composition comprising 4-iodo-2-[3-(4-methoxy-6-methyl-1,3,5-triazin-2-yl)ureidosulfonyl]benzoic esters” (priority 1995, dated 2006).
# Legend:
# Type in all cases: in vivo
# Triticum aestivum = test: Damage to crop plant TRZAW, visual scoring vs untreated
# Experimental: (§1) The examples given below were performed in the greenhouse and, in some cases, in field trials.
# (§2) The herbicides, or combinations, were applied in cereals after the weeds had emerged naturally using plot sprayers. After application, the results, such as damage to the crop plants and effect on broad-leaved weeds/grass weeds were assessed by means of visual scoring. The herbicidal action was assessed qualitatively and quantitatively by comparing untreated and treated plots on the basis of the effect on plant growth and the development of chloroses and necroses down to the complete destruction of the weeds (0–100%). The application was effected when the crop plants and weeds were in the 2–4 leaf stage. The test was evaluated approximately 4 weeks after application.
# (§3) In the greenhouse experiments, the crop plants and broadleaved weeds/grass weeds were grown in No. 13 pots and treated in the 2–4 leaf stage. The pots were subsequently placed in the greenhouse under good growth conditions (temperature, atmospheric humidity, water supply).
# (§4) The assessments were carried out similarly to those in the field trials, i.e. visual scoring of the treated plants in comparison with untreated control variants. These assessments were carried out 3 weeks after applying the test preparations and their combinations. The experiments had been set up in two replications.
# Fallopia convolvulus = test: Herbicidal action on FALCO, visual scoring vs untreated, post-emergence 2-4 leaf stage
# Experimental: as §1, §2, §3, §4
# (§5) To assess the combination effects, the activities of the individual components were added and compared with the activity of the mixtures in equal doses. It was frequently observed that the efficacies of the combinations exceeded the total of the individual activities.
# (§6) In cases with less clear effects, the expected value was calculated using Colby's formula and compared with the empirically determined result. The calculated efficacy of a combination which is expected in theory is determined is using S.R. Colby's formula: “Calculation of synergistic and antagonistic responses of herbicide combinations”, Weeds 15 (1967), pages 20 to 22.
# (§7) [formula] where • X=% damage caused by herbicide A at a rate of ×kg a.i./ha; • Y=% damage caused by herbicide B at a rate of y kg a.i./ha; • Z=% damage caused by a further herbicide C at a rate of z kg a.i./ha; • E=expected value, i.e. expected damage caused by herbicides A+B (or A+B+C) at x+y (or x+y+z) kg a.i./ha.
# (§8) Synergistic effects were assumed to be when the empirical value exceeded the expected value. In the case of combinations with individual components with the same active substances, comparisons via the total formula were also possible.
# Echinochloa crus galli = test: Herbicidal action on ECHCR, visual scoring vs untreated, post-emergence 2-4 leaf stage
# Experimental: as §1, §2, §3, §4, §5, §6, §7, §8
# Zea mays = test: Damage to crop plant ZEAMA, visual scoring vs untreated; conditions: Table 8
# Experimental: as §1, §2, §3, §4
# Secale cereale = test: Damage to crop plant SECCW, visual scoring vs untreated
# Experimental: as §1, §2, §3, §4
# Centaurea cyanus = test: Herbicidal action on CENCY, visual scoring vs untreated, post-emergence 2-4 leaf stage
# Experimental: as §1, §2, §3, §4, §5, §6, §7, §8
# Lolium multiflorum = test: Herbicidal action on LOLMU, visual scoring vs untreated, post-emergence 2-4 leaf stage; conditions: Table 5
# Experimental: as §1, §2, §3, §4, §5, §6, §7, §8
# Avena fatua = test: Herbicidal action on AVEFA, visual scoring vs untreated, post-emergence 2-4 leaf stage; conditions: Table 11
# Experimental: as §1, §2, §3, §4, §5, §6, §7, §8
# Mercurialis annua = test: Herbicidal action on MERAN, visual scoring vs untreated, post-emergence 2-4 leaf stage; conditions: Table 11
# Experimental: as §1, §2, §3, §4, §5, §6, §7, §8
# Gallium aparine = test: Herbicidal action on GALAP, visual scoring vs untreated, post-emergence 2-4 leaf stage
# Experimental: as §1, §2, §3, §4, §5, §6, §7, §8
# Phalaris canariensis = test: Herbicidal action on PHACA, visual scoring vs untreated, post-emergence 2-4 leaf stage (greenhouse / field trials); conditions: Table 1
# Experimental: as §1, §2, §3, §4, §5, §6, §7, §8
# Apera spica venti = test: Herbicidal action on APESV, visual scoring vs untreated, post-emergence 2-4 leaf stage; conditions: Table 1
# Experimental: as §1, §2, §3, §4, §5, §6, §7, §8
smiles,measurement,setting,value
"COC(=O)c1ccccc1S(=O)(=O)NC(=O)N(C)c1nc(C)nc(OC)n1 [B42), tribenuron-methyl]",TRZAW % damage,"Triticum aestivum; Triticum aestivum, in vivo",0%
same,FALCO % control,"Fallopia convolvulus; Table 9, 5 g of a.i./ha",88%
same,FALCO % control,"Fallopia convolvulus; Table 9, 10 g of a.i./ha",93%
same,FALCO % control,"Fallopia convolvulus; Table 9, 20 g of a.i./ha",95%
same,FALCO % control,"Fallopia convolvulus; Table 9, 40 g of a.i./ha",97%
"CCNc1nc(Cl)nc(NC(C)C)n1 [B36), 6-chloro-N-^2-ethyl-N-4-isopropyl-1,3,5-triazine-2,4-diamine]",ECHCR % control,"Echinochloa crus galli; Table 8, 375 g of a.i./ha",0%
same,ECHCR % control,"Echinochloa crus galli; Table 8, 750 g of a.i./ha",0%
same,ECHCR % control,"Echinochloa crus galli; Table 8, 1500 g of a.i./ha",3%
same,ECHCR % control,"Echinochloa crus galli; Table 8, 3000 g of a.i./ha",3%
same,ZEAMA % damage,Zea mays; 375 g of a.i./ha,0%
same,ZEAMA % damage,Zea mays; 750 g of a.i./ha,0%
same,ZEAMA % damage,Zea mays; 1500 g of a.i./ha,0%
same,ZEAMA % damage,Zea mays; 3000 g of a.i./ha,0%
"CCS(=O)(=O)c1cccnc1S(=O)(=O)NC(=O)Nc1nc(OC)cc(OC)n1 [B14), 1-(4,6-dimethoxypyrimidin-2-yl)-3-(3-ethylsulfonyl-2-pyridylsulfonyl) urea]",ECHCR % control,"Echinochloa crus galli; Table 4, 5 g of a.i./ha",15%
same,ECHCR % control,"Echinochloa crus galli; Table 4, 10 g of a.i./ha",60%
same,ECHCR % control,"Echinochloa crus galli; Table 4, 20 g of a.i./ha",85%
"COc1cc(OC)nc(NC(=O)NS(=O)(=O)N(C)S(C)(=O)=O)n1 [B40), 1-(4,6-dimethoxypyrimidin-2-yl)-3-mesyl (methyl)-sulfamoylurea]",SECCW % damage,"Secale cereale; Table 10, 20 g of a.i./ha",0%
same,CENCY % control,"Centaurea cyanus; Table 10, 20 g of a.i./ha",25%
"COc1c(Cl)ccc(Cl)c1C(=O)O [B20), 3,6-dichloro-o-anisic acid]",LOLMU % control,Lolium multiflorum; 50 g of a.i./ha,5%
same,LOLMU % control,Lolium multiflorum; 100 g of a.i./ha,10%
same,LOLMU % control,Lolium multiflorum; 200 g of a.i./ha,18%
same,LOLMU % control,Lolium multiflorum; 400 g of a.i./ha,40%
"CP(=O)(O)CC[C@@H](N)C(=O)O (racemic) [B49), 4-[hydroxy(methyl)phosphinoyl]-DL-homoalanine]",AVEFA % control,Avena fatua; 150 g of a.i./ha,60%
same,AVEFA % control,Avena fatua; 300 g of a.i./ha,70%
same,AVEFA % control,Avena fatua; 450 g of a.i./ha,80%
same,MERAN % control,Mercurialis annua; 150 g of a.i./ha,65%
same,MERAN % control,Mercurialis annua; 300 g of a.i./ha,78%
same,MERAN % control,Mercurialis annua; 450 g of a.i./ha,90%
same,GALAP % control,"Gallium aparine; Table 11, 150 g of a.i./ha",55%
same,GALAP % control,"Gallium aparine; Table 11, 300 g of a.i./ha",73%
same,GALAP % control,"Gallium aparine; Table 11, 450 g of a.i./ha",85%
"COC(=O)C(C)Oc1ccc(Oc2ccc(Cl)cc2Cl)cc1 (racemic) [B3), diclofop-methyl]",PHACA % control,Phalaris canariensis; 225 g of a.i./ha,0%
same,PHACA % control,Phalaris canariensis; 450 g of a.i./ha,0%
same,PHACA % control,Phalaris canariensis; 900 g of a.i./ha,0%
same,TRZAW % damage,"Triticum aestivum; Table 1, 225 g of a.i./ha",0%
same,TRZAW % damage,"Triticum aestivum; Table 1, 450 g of a.i./ha",0%
same,TRZAW % damage,"Triticum aestivum; Table 1, 900 g of a.i./ha",0%
same,APESV % control,Apera spica venti; 225 g of a.i./ha,0%
same,APESV % control,Apera spica venti; 450 g of a.i./ha,0%
same,APESV % control,Apera spica venti; 900 g of a.i./ha,8%
"N#Cc1cc(I)c(O)c(I)c1 [B22), 4-hydroxy-3,5-di-iodobenzonitrile]",TRZAW % damage,Triticum aestivum; in vivo,0%
same,GALAP % control,"Gallium aparine; Table 7, 62.5 g of a.i./ha",0%
same,GALAP % control,"Gallium aparine; Table 7, 125 g of a.i./ha",3%
same,GALAP % control,"Gallium aparine; Table 7, 250 g of a.i./ha",10%
same,GALAP % control,"Gallium aparine; Table 7, 500 g of a.i./ha",18%
"Cc1cc(Cl)ccc1O[C@H](C)C(=O)O [B16), (R)-2-(4-chloro-o-tolyloxy)propionic acid]",SECCW % damage,"Secale cereale; Table 6, 600 g of a.i./ha",0%
same,SECCW % damage,"Secale cereale; Table 6, 2500 g of a.i./ha",0%
same,TRZAW % damage,"Triticum aestivum; Table 5, 125 g of a.i./ha",0%
same,TRZAW % damage,"Triticum aestivum; Table 5, 250 g of a.i./ha",0%
same,TRZAW % damage,"Triticum aestivum; Table 5, 500 g of a.i./ha",0%
same,TRZAW % damage,"Triticum aestivum; Table 5, 1000 g of a.i./ha",0%
same,CENCY % control,"Centaurea cyanus; Table 6, 600 g of a.i./ha",30%
same,CENCY % control,"Centaurea cyanus; Table 6, 2500 g of a.i./ha",70%
same,FALCO % control,"Fallopia convolvulus; Table 5, 125 g of a.i./ha",0%
same,FALCO % control,"Fallopia convolvulus; Table 5, 250 g of a.i./ha",15%
same,FALCO % control,"Fallopia convolvulus; Table 5, 500 g of a.i./ha",55%
same,FALCO % control,"Fallopia convolvulus; Table 5, 1000 g of a.i./ha",68%
